Test results as given in ChEMBL document CHEMBL4673260, “Pyridine alkaloids with activity in the central nervous system” (Bioorg Med Chem, 2020).

Columns and labels:
[1] = Half life in human; format: ADME
[2] = Induction of contextual fear extinction in fear-conditioned C57/BlJ6 mouse assessed as decrease in initial freezing behavior at 5 mg/kg administered for 1 week by contextual fear conditioning assay; format: functional; set-up: scale not given: the % may be the effect or the level left; conditions: time 1 weeks
[3] = biological target: Protein kinase C alpha type (Homo sapiens) (UniProt P17252); assay: Inhibition of human protein kinase Ca at 10 uM relative to control
[4] = biological target: cGMP-specific 3',5'-cyclic phosphodiesterase (Homo sapiens) (UniProt O76074); assay: Inhibition of human PDE5A1 at 10 uM relative to control
[5] = biological target: Substance-P receptor (Homo sapiens) (UniProt P25103); assay: Inhibition of human NK1 at 10 uM relative to control
[6] = biological target: Leukotriene B4 receptor 1 (Homo sapiens) (UniProt Q15722); assay: Inhibition of human BLT expressed in CHO-K1 cells at 10 uM relative to control; format: cell-based
Homo sapiens [7] = species: Homo sapiens; assay: Inhibition of sodium channel site2 (unknown origin) at 10 uM relative to control
hERG (KCNH2) = hERG (KCNH2) (Homo sapiens, UniProt Q12809); assay: Inhibition of human ERG in HEK293 cells at 10 uM relative to control; format: cell-based; conditions: HEK293 cells that express hERG
Homo sapiens [8] = species: Homo sapiens; assay: Inhibition of N-type calcium channel (unknown origin) at 10 uM relative to control
[9] = biological target: Sigma non-opioid intracellular receptor 1 (Homo sapiens) (UniProt Q99720); assay: Inhibition of sigma 1 receptor (unknown origin) at 10 uM relative to control
Sigma non-opioid intracellular receptor 1 (Homo sapiens), sequence (Q99720 whole entry): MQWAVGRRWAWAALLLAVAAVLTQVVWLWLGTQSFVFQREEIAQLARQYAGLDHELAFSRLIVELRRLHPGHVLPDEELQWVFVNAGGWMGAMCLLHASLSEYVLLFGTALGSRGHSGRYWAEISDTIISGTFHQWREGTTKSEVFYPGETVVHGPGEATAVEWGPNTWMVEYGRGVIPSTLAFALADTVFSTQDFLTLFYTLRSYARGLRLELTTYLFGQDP

[10] = biological target: 5-hydroxytryptamine receptor 7 (Homo sapiens) (UniProt P34969); assay: Inhibition of human 5HT-7 receptor at 10 uM relative to control
5-hydroxytryptamine receptor 7 (Homo sapiens), sequence (P34969 whole entry): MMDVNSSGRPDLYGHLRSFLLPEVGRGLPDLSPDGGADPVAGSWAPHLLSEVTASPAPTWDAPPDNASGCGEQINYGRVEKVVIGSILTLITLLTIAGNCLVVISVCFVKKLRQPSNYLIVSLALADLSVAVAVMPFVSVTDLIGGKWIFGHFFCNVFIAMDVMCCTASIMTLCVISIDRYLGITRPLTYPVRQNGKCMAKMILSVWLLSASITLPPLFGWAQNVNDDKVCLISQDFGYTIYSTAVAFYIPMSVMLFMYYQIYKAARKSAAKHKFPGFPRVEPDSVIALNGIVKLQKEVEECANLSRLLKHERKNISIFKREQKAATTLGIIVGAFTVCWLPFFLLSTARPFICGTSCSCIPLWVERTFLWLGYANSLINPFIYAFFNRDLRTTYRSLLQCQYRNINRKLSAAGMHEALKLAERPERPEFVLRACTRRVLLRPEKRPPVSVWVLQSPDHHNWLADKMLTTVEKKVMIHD

[11] = biological target: 5-hydroxytryptamine receptor 2A (Homo sapiens, UniProt P28223); assay: Inhibition of human 5HT-2A receptor expressed in CHO-K1 cells at 10 uM relative to control; format: cell-based
5-hydroxytryptamine receptor 2A, sequence (P28223 whole entry): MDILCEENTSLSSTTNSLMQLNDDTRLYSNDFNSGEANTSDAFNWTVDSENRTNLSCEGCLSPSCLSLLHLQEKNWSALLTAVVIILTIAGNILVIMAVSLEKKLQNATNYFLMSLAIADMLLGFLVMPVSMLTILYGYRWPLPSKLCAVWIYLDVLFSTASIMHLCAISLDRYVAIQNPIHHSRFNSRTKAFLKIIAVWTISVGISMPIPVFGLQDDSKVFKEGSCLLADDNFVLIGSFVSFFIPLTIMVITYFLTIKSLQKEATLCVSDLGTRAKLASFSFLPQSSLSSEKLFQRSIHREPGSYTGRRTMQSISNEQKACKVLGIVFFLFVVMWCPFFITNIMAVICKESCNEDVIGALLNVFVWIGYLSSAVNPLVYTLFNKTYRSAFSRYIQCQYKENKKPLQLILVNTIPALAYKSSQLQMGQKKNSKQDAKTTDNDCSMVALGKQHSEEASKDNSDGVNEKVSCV

[12] = biological target: Sodium-dependent serotonin transporter (Homo sapiens) (UniProt P31645); assay: Inhibition of human serotonin transporter expressed in HEK293 cells at 10 uM relative to control; format: cell-based
Sodium-dependent serotonin transporter (Homo sapiens), sequence (P31645 whole entry, looked up): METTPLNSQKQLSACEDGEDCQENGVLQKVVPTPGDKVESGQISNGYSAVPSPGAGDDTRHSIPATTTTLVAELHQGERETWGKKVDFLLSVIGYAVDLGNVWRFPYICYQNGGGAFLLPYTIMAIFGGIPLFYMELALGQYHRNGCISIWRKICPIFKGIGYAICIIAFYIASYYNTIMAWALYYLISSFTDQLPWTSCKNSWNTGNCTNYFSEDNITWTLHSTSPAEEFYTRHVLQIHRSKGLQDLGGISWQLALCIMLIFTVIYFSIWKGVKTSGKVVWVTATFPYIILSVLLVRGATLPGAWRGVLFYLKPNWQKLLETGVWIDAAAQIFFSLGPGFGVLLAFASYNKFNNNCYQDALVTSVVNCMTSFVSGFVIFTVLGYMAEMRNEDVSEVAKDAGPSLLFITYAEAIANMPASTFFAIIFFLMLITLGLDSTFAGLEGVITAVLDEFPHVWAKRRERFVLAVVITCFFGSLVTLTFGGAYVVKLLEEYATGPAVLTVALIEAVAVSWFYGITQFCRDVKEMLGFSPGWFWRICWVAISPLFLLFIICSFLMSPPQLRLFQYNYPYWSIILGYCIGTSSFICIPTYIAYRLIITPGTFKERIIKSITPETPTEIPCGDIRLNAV

[13] = biological target: Mu-type opioid receptor (Homo sapiens) (UniProt P35372); assay: Inhibition of human Mu-type opioid receptor at 10 uM relative to control
Mu-type opioid receptor (Homo sapiens), sequence (P35372 whole entry): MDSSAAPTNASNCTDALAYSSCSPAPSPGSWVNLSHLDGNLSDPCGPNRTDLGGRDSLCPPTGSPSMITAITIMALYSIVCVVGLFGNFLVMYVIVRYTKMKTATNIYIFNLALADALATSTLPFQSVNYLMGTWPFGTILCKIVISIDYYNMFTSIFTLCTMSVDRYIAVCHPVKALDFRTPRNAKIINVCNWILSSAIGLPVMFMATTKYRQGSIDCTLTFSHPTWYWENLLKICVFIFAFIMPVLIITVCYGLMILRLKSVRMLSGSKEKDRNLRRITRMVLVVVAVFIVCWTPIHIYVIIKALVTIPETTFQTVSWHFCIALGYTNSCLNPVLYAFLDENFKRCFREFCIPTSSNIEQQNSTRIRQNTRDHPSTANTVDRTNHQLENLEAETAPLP

Homo sapiens [14] = species: Homo sapiens; assay: Inhibition of nAChR (unknown origin) at 10 uM relative to control
[15] = biological target: Muscarinic acetylcholine receptor M5 (Homo sapiens) (UniProt P08912); assay: Inhibition of human muscarinic M5 receptor expressed in CHO-K1 cells at 10 uM relative to control; format: cell-based
[16] = biological target: Muscarinic acetylcholine receptor M4 (Homo sapiens) (UniProt P08173); assay: Inhibition of human muscarinic M4 receptor expressed in CHO-K1 cells at 10 uM relative to control; format: cell-based
Muscarinic acetylcholine receptor M4 (Homo sapiens), sequence (P08173 whole entry): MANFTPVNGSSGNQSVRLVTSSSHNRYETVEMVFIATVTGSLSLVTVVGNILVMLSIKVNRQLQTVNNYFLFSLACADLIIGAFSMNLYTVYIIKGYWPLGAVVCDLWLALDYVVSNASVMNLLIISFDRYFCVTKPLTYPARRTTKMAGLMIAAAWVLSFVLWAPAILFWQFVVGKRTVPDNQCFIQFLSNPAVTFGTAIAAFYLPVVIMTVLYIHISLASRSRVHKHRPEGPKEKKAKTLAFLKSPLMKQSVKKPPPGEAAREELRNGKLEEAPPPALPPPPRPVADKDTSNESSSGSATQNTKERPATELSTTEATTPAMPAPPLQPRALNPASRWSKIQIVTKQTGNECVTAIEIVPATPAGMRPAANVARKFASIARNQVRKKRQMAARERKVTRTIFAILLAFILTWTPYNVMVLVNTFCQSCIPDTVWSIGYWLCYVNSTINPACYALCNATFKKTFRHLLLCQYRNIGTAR

[17] = biological target: Muscarinic acetylcholine receptor M3 (Homo sapiens, UniProt P20309); assay: Inhibition of human muscarinic M3 receptor expressed in CHO-K1 cells at 10 uM relative to control; format: cell-based
Muscarinic acetylcholine receptor M3, sequence (P20309 whole entry, looked up): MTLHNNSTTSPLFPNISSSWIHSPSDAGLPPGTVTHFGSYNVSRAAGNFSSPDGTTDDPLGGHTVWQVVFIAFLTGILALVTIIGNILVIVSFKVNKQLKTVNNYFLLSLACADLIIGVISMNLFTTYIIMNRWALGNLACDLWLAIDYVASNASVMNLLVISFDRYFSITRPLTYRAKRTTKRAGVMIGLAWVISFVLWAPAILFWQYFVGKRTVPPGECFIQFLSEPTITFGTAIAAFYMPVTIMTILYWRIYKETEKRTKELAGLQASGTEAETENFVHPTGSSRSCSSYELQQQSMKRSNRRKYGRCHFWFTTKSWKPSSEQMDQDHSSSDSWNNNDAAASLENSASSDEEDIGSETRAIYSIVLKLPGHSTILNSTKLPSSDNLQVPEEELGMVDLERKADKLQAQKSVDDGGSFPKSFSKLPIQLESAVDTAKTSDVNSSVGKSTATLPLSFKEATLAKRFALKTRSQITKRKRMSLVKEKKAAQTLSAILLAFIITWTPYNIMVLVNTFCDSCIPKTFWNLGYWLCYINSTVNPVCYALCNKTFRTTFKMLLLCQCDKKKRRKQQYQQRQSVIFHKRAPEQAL

[18] = biological target: Histamine H1 receptor (Homo sapiens) (UniProt P35367); assay: Inhibition of human histamine H1 receptor expressed in CHO-K1 cells at 10 uM relative to control; format: cell-based
Histamine H1 receptor (Homo sapiens), sequence (P35367 whole entry): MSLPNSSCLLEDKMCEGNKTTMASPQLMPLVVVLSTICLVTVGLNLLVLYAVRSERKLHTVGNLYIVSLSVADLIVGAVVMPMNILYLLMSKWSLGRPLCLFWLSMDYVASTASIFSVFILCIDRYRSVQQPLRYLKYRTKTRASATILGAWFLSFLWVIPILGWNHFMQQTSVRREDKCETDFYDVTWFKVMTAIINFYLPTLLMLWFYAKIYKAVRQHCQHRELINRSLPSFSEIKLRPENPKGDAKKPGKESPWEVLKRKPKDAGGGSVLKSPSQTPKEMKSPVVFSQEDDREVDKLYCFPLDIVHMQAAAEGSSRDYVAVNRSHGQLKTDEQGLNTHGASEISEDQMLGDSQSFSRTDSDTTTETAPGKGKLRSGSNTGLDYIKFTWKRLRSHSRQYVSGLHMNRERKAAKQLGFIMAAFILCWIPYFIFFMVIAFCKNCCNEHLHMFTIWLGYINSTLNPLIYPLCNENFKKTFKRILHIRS

Homo sapiens [19] = species: Homo sapiens; assay: Inhibition of Glutamate receptor ionotropic NMDA phencyclidine site (unknown origin) at 10 uM relative to control
Homo sapiens [20] = species: Homo sapiens; assay: Inhibition of Glutamate receptor ionotropic kainate site (unknown origin) at 10 uM relative to control
Homo sapiens [21] = species: Homo sapiens; assay: Inhibition of Glutamate receptor ionotropic AMPA site (unknown origin) at 10 uM relative to control
[22] = biological target: Gamma-aminobutyric acid type B receptor subunit 1 (Homo sapiens) (UniProt Q9UBS5); assay: Inhibition of human GABA-B1 at 10 uM relative to control
Homo sapiens [23] = species: Homo sapiens; assay: Inhibition of GABA-A agonist site (unknown origin) at 10 uM relative to control
[24] = biological target: D(1A) dopamine receptor (Homo sapiens) (UniProt P21728); assay: Inhibition of human dopamine D1 receptor at 10 uM relative to control
[25] = biological target: Beta-2 adrenergic receptor (Homo sapiens) (UniProt P07550); assay: Inhibition of human adrenergic receptor beta2 expressed in CHO-K1 cells at 10 uM relative to control; format: cell-based
[26] = biological target: Beta-1 adrenergic receptor (Homo sapiens) (UniProt P08588); assay: Inhibition of human adrenergic receptor beta1 expressed in CHO-K1 cells at 10 uM relative to control; format: cell-based
Beta-1 adrenergic receptor (Homo sapiens), sequence (P08588 whole entry, looked up): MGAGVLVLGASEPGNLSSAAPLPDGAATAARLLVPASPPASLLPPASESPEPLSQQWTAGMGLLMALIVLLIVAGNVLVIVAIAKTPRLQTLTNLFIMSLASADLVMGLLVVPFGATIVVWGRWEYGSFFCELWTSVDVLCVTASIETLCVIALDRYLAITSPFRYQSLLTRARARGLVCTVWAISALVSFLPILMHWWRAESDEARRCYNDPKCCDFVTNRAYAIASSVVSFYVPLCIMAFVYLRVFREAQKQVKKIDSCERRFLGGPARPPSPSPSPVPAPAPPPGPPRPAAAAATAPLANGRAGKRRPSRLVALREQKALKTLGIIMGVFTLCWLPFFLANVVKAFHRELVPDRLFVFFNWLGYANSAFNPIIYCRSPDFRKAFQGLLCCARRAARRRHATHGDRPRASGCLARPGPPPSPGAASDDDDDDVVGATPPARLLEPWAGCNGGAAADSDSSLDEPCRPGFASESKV

[27] = biological target: Alpha-2C adrenergic receptor (Homo sapiens) (UniProt P18825); assay: Inhibition of human adrenergic receptor alpha2C expressed in CHO-K1 cells at 10 uM relative to control; format: cell-based
Alpha-2C adrenergic receptor (Homo sapiens), sequence (P18825 whole entry): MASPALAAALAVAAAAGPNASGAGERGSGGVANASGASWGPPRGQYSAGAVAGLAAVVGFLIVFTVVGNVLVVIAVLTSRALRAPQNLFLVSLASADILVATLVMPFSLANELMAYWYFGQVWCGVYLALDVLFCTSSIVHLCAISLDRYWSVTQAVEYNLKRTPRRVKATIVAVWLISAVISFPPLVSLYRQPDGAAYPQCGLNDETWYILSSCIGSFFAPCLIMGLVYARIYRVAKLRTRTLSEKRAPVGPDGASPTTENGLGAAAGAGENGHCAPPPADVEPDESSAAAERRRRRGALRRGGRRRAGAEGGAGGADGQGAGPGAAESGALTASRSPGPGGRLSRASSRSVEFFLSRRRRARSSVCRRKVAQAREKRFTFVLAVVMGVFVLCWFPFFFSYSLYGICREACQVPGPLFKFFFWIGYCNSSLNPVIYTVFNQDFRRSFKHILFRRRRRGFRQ

[28] = biological target: Neuronal acetylcholine receptor; alpha4/beta2 (Rattus norvegicus, UniProt P09483+P12390)
Description: Agonist activity at alpha4beta2 nAChR in rat frontal cortex membrane

In the case of `CN1C(=O)CC[C@H]1c1cccnc1` [COTININE], the half-life [1] is reported as 19 h, the Activity [2] is reported as “>=20%” and the inhibition [3] is reported as less than 50%. It also gave an inhibition [4] of less than 50%, an inhibition [5] of less than 50% and an inhibition [6] of less than 50%. For the same molecule, the inhibition (Homo sapiens [7]) was less than 50%, the inhibition at 10 µM (hERG (KCNH2)) was less than 50% and the inhibition (Homo sapiens [8]) was less than 50%. For the same molecule, the inhibition [9] was less than 50%, the inhibition [10] was less than 50% and the inhibition [11] was less than 50%. The inhibition [12] was less than 50%, the inhibition [13] was less than 50% and the inhibition (Homo sapiens [14]) was less than 50%. It also gave an inhibition [15] of less than 50%, an inhibition [16] of less than 50% and an inhibition [17] of less than 50%. For the same molecule, the inhibition [18] was less than 50%, the inhibition (Homo sapiens [19]) was less than 50% and the inhibition (Homo sapiens [20]) was less than 50%. For the same molecule, the inhibition (Homo sapiens [21]) was less than 50%, the inhibition [22] was less than 50% and the inhibition (Homo sapiens [23]) was less than 50%. For the same molecule, the inhibition [24] was less than 50%, the inhibition [25] was less than 50% and the inhibition [26] was less than 50%. The inhibition [27] was less than 50% and the EC50 [28] was 21 µM.
